Source: patent US20200268701A1, “COMPOSITIONS AND METHODS FOR PRODUCING ELEVATED AND SUSTAINED KETOSIS” (University of South Florida, priority 2013, published 2020)
Where a name gives a salt, the structure may show the parent alone. Blank lines part the entries; values can stand above or below the molecule they belong to.

How the values were obtained:
[1] = human, in vivo, po
Description: All procedures were done in accordance with the University of South Florida Institutional Review Board (IRB) guidelines. BHB salts and MCT oil were given to human subjects as a ketogenic food supplement and blood measurements of BHB and/or glucose were taken at predetermined time points.
To determine the time course of ketosis, the subjects were orally given the test substances of a BHB salt solution (450 mL; 4%, approximately 18 g), an MCT oil (30 mL, approximately 30 g), or a combination of the a BHB salt solution and an MCT oil. Blood concentrations of glucose and BHB were determined utilizing a commercially available glucose/ketone monitoring system (Precision Xtra® blood glucose and ketone meter) at defined time points (0, 15, 30, 60, 120, 240 and 480 minutes following ingestion of the test substances).
The subject was administered a BHB salt solution containing 4% Na^+/K^+ BHB salts in solution, an MCT oil, or a combination of the 4% Na^+/K^+ BHB salts and the MCT oil. At 15, 30, 60, 120, 240 and 480 minutes after administration, blood was drawn. The subject returned on days 2 and 3 for additional supplements, with blood taken as on day 1. Levels of BHB in the blood were determined as described above.

[2] = set-up: species or system Sprague-Dawley rats; settings: rat, in vivo
Source text: (§1) Subject rats (n=74), 275-325 grams, were randomly assigned to a control group (no supplementation) or to one of three ketone precursor groups: medium chain triglyceride (MCT) oil (MO), mineral (Na^+/K+) salt of β-hydroxybutyrate (βHB) (SO), or SO+MO 1:1 combination (SM). The ketone mineral salt was developed and synthesized by Dr. Patrick Arnold from Prototype Nutrition. Pure pharmaceutical grade MCT oil was purchased from Now Foods (Bloomingdale, Ill.). SM was mixed at a 1:1 ratio.
(§2) Rats were supplemented with medium chain triglyceride (MCT) oil (MO), or a mineral (Na+/K+) salt of β-hydroxybutyrate (βHB) (SO), or SO+MO 1:1 mixture (SM) and force fed a daily at a dose of 5 g/kg body weight on days 1-14, followed by a 10 g/kg dose on days 15-28 rats Supplementation was given between 10 am and […] daily to eliminate variance based on regular eating patterns. Diets were not restricted for this study.
Once a week, animals were fasted for 4 hours prior to intragastric gavage of the appropriate ketone supplement. The four hour food restriction was used to eliminate normal variance in blood glucose and ketone levels due to food consumption. […]

[3] = Blood βHB levels of a fasted 70 kg subject after oral administration; format: in vivo, human; set-up: unit: mM; settings: for Blood βHB levels Mean: 70 kg male, mean of 3 days; for Blood βHB levels Day 1 / Blood βHB levels Day 2 / Blood βHB levels Day 3: 70 kg person
Description: (§3) To determine the time course of ketosis, the subjects were orally given the test substances of a BHB salt solution (450 mL; 4%, approximately 18 g), an MCT oil (30 mL, approximately 30 g), or a combination of the a BHB salt solution and an MCT oil. Blood concentrations of glucose and BHB were determined utilizing a commercially available glucose/ketone monitoring system (Precision Xtra® blood glucose and ketone meter) at defined time points (0, 15, 30, 60, 120, 240 and 480 minutes following ingestion of the test substances). Subject (70 kg) was instructed to fast for three days, and was given a single daily oral administration of either ßHB salts (4% solution containing 11 grams sodium ßHB and 7.1 grams potassium ßHB), MCT oil or ßHB salts+MCT oil at 15, 30, 60, 120, 240 and 480 minutes on 3 consecutive days. At 15, 30, 60, 120, 240 and 480 minutes after administration, blood was drawn. The subject returned on days 2 and 3 for additional supplements, with blood taken as on day 1, as in Example 1.

[4] = Blood glucose levels of a fasted 70 kg subject after oral administration; format: in vivo, human; settings: for Blood glucose levels Mean: 70 kg male, mean of 3 days; for Blood glucose levels Day 1 / Blood glucose levels Day 2 / Blood glucose levels Day 3: 70 kg person
Description: as §3, with “1. […] Blood glucose levels were determined as described above.” for “1.”

[5] = Blood glucose levels in rats after ketone supplementation; format: in vivo, Sprague-Dawley rats
Source text: as §1, §2
Once a week, animals were fasted for 4 hours prior to intragastric gavage of the appropriate ketone supplement. The four hour food restriction was used to eliminate normal variance in blood glucose and ketone levels due to food consumption. Whole blood samples (10 μL) were acquired from the saphenous vein of the subjects for analysis of glucose and βHB utilizing the commercially available glucose and ketone monitoring system Precision Xtra™ (Abbott Laboratories, Abbott Park, Ill.) at time intervals of 0, 0.5, 1, 4, 8, and 12 hours after ketone precursor supplements were administered, or until βHB returned to baseline. On Day 0 (Week 0) and Day 28 (Week 4), whole blood samples (10 μL) were acquired for analysis of total cholesterol, HDL, and triglycerides for a lipid panel utilizing the commercially available home cholesterol analyzer Cardio Chek™ (Polymer Technology Systems, Inc., Indianapolis, Ind.) at time 0. Animals were weighed once per week to maintain accurate dosage using the Mittler Toledo SB 16001 scales.

[6] = Change of body weight in rats during 28 days of ketone supplementation; format: in vivo, Sprague-Dawley rats; settings: daily for 28 days
Description: Diets were not restricted for this study. Once a week, animals were fasted for 4 hours prior to intragastric gavage of the appropriate ketone supplement. The four hour food restriction was used to eliminate normal variance in blood glucose and ketone levels due to food consumption. […] Animals were weighed once per week to maintain accurate dosage using the […] Toledo SB 16001 scales. Rats were administered SO, MO, or SM daily for 28 days as described above. Each week the animals were weighed. […] The control animals continued to gain weight throughout the month-long study. In comparison, the ketone supplement treatment groups all gained less weight. […] A key finding of this study is that the SM group was able to limit weight gain in an unexpected way as the amounts of BHB and MCT when combined were much lower than the amounts of those ingredients used in the SO and MO treatment groups. This effect on body weight gain is likely due to appetite suppression caused by the supplements, rather than a reduced intake of the supplement itself, as force feeding controlled for dosing.

- Elevation in BHB levels (in words) [1]: little elevation in BHB levels
- Time of peak plasma BHB level after administration [1]: 60 min
- Triglyceride levels at week 4 compared with week 0 [2]: little change
Molecule: medium chain triglyceride (MCT) oil [MCT (30 mL)]

- Blood βHB levels Mean ([3]; time 0 minutes): 0.87
- Blood βHB levels Mean ([3]; time 30 minutes): 1.73
- Blood βHB levels Mean ([3]; time 60 minutes): 2.77
- Blood βHB levels Mean ([3]; time 120 minutes): 1.73
- Blood βHB levels Mean ([3]; time 240 minutes): 1.53
- Blood βHB levels Mean ([3]; time 480 minutes): 1.53
- Blood βHB levels Day 1 ([3]; time 0 minutes): 0.2
- Blood βHB levels Day 2 ([3]; time 0 minutes): 0.6
- Blood βHB levels Day 3 ([3]; time 0 minutes): 1.8
- Blood βHB levels Day 1 ([3]; time 30 minutes): 0.7
- Blood βHB levels Day 2 ([3]; time 30 minutes): 1.8
- Blood βHB levels Day 3 ([3]; time 30 minutes): 2.7
- Blood βHB levels Day 1 ([3]; time 60 minutes): 1.1
- Blood βHB levels Day 2 ([3]; time 60 minutes): 2.4
- Blood βHB levels Day 3 ([3]; time 60 minutes): 4.8
- Blood βHB levels Day 1 ([3]; time 120 minutes): 0.3
- Blood βHB levels Day 2 ([3]; time 120 minutes): 1.6
- Blood βHB levels Day 3 ([3]; time 120 minutes): 3.3
- Blood βHB levels Day 1 ([3]; time 240 minutes): 0.4
- Blood βHB levels Day 2 ([3]; time 240 minutes): 1.2
- Blood βHB levels Day 3 ([3]; time 240 minutes): 3
- Blood βHB levels Day 1 ([3]; time 480 minutes): 0.6
- Blood βHB levels Day 2 ([3]; time 480 minutes): 1.6
- Blood βHB levels Day 3 ([3]; time 480 minutes): 2.4
- Triglyceride levels at week 4 compared with week 0 [2]: mildly elevated
Molecule: CC(O)CC(=O)O (stereo not drawn) [BHB salt (450 mL), β-hydroxybutyrate]
- Elevation in BHB levels (in words) [1]: higher elevation in BHB levels than MCT oil alone
- Blood glucose levels Mean ([4]; time 0 minutes): 90.00
- Blood glucose levels Mean ([4]; time 30 minutes): 87.00
- Blood glucose levels Mean ([4]; time 60 minutes): 81.00
- Blood glucose levels Mean ([4]; time 120 minutes): 77.33
- Blood glucose levels Mean ([4]; time 240 minutes): 77.33
- Blood glucose levels Mean ([4]; time 480 minutes): 74.67
- Blood glucose levels Day 1 ([4]; time 0 minutes): 100
- Blood glucose levels Day 2 ([4]; time 0 minutes): 90
- Blood glucose levels Day 3 ([4]; time 0 minutes): 80
- Blood glucose levels Day 1 ([4]; time 30 minutes): 95
- Blood glucose levels Day 2 ([4]; time 30 minutes): 95
- Blood glucose levels Day 3 ([4]; time 30 minutes): 71
- Blood glucose levels Day 1 ([4]; time 60 minutes): 85
- Blood glucose levels Day 2 ([4]; time 60 minutes): 90
- Blood glucose levels Day 3 ([4]; time 60 minutes): 68
- Blood glucose levels Day 1 ([4]; time 120 minutes): 82
- Blood glucose levels Day 2 ([4]; time 120 minutes): 85
- Blood glucose levels Day 3 ([4]; time 120 minutes): 65
- Blood glucose levels Day 1 ([4]; time 240 minutes): 80
- Blood glucose levels Day 2 ([4]; time 240 minutes): 84
- Blood glucose levels Day 3 ([4]; time 240 minutes): 68
- Blood glucose levels Day 1 ([4]; time 480 minutes): 76
- Blood glucose levels Day 2 ([4]; time 480 minutes): 80
- Blood glucose levels Day 3 ([4]; time 480 minutes): 68
- Blood glucose versus control (in words) ([5]; 5 g/kg, week 0): did not show any significant difference compared to control
- Blood glucose versus control (in words) ([5]; 5 g/kg, week 1): began reducing glucose by 8 hours
- Blood glucose versus control (in words) ([5]; 10 g/kg, week 2 onward): reduced glucose levels at 30 minutes through 8 hours
- Body weight gain compared to controls (in words) [6]: gained significantly less weight compared to controls
